Consider 21 compounds from patent US11427552B2, “Heterocyclic compounds useful in the treatment of disease” (EPIGEN BIOSCIENCES, INC., priority 2013, dated 2022).

pIC50: −log10 of the molar value.

T1 sequence (Q92633 whole entry): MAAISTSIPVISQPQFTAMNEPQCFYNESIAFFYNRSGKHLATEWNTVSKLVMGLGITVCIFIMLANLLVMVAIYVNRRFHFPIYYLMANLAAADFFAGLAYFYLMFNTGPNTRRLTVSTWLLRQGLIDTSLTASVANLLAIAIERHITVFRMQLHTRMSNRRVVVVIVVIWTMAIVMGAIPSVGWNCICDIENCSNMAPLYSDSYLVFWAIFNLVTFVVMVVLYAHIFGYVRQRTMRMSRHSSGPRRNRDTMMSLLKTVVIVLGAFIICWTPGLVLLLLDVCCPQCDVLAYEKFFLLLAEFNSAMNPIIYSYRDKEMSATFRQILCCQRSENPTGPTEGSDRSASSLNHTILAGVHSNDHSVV

This assay addresses T1, LPA1R (Homo sapiens, UniProt Q92633).
T1 construct: host or cells: LPA1R expressing cells (Millipore, GPCR Profiler)
In words: LPA1R Ca2+ flux functional assay (antagonist mode, FLIPR). Type of assay: cell-based. As to conditions: inhibition of LPA-stimulated Ca2+ flux, LPA at EC80, LPA1R expressing cells (Millipore); read-out: LPA1 R Antagonist Activity. The protocol: Inhibition of LPA-stimulated Ca^2+ flux was used to assess compound potency using FLIPR technology in a 96 well plate format. The assay buffer used was a modified Hanks Balanced Salt Solution (HBSS) where HBSS was supplemented to contain 20 mM HEPES and 2.5 mM Probenecid at pH7.4 (Millipore, GPCR Profiler®). LPA1R expressing cells (Millipore) were plated and prepared 24 hours prior to assay of test articles. Ca^2+ ion flux was assessed from fluorescence of a Fluo-based No Wash Ca^2+ dye. Antagonist data are generated from plates with LPA concentrations sufficient to generate 80% efficacy [EC80]. Percentage inhibition was calculated from a reduction of efficacy according to concentration of compounds of Formula I-VI. For dose responses the inhibition data was used to calculate compound IC50. The agonist assay was conducted on a FLIPR^TETRA instrument where the test compound(s), vehicle controls, and reference agonist were added to the assay plate after a fluorescence baseline was established. The agonist assay was a total of 180 seconds and was used to assess each compound's ability to activate each GPCR assayed. Upon completion of the agonist assay, the assay plate was removed from the FLIPR^TETRA and incubated at 25° C. for seven (7) minutes. After the incubation period, the assay plate was placed back in the FLIPR^TETRA and the antagonist assay was initiated. Using EC80 potency values determined during the agonist assay, all pre-incubated sample compound wells were challenged with EC80 concentration of reference agonist after establishment of a fluorescence baseline. The antagonist assay was conducted using the same assay plate that was used for the agonist assay. The antagonist assay was conducted on a FLIPR^TETRA instrument where 9 vehicle controls and EC80 concentration of reference agonist were added to appropriate wells. The antagonist assay was a total of 180 seconds and was used to assess each compound's ability to inhibit each GPCR assayed. All assay plate data were subjected to appropriate baseline corrections. After baseline corrections were applied, maximum fluorescence values were exported and data processed to calculate percentage activation (relative to Emax reference agonist and vehicle control values), percentage inhibition (relative to EC80 and vehicle control values), and additional statistical values (i.e. Z′, percentage variation between replicate data values) to assess the quality of each plate. Where assay plate data were rejected, additional experiments were conducted. All dose response curves were generated using GraphPad Prism. The curves were fit by utilizing “Sigmoidal Dose Response (Variable Slope)” equation where the bottom parameter was fixed to “0.” Where appropriate, the top parameter was fixed to “100” to better predict potency values when a full curve was not generated by the concentrations assayed.
As for `Cc1noc(-c2ccc(CN[C@H](Cc3ccc(Cl)cc3)C(=O)O)cc2)c1NC(=O)O[C@H](C)c1ccccc1` [Example 36, (R)-3-(4-Chloro-phenyl)-2-{4-[3-methyl-4-((R)-1-phenyl-ethoxycarbonylamino)-isoxazol-5-yl]-benzylamino}-propionic Acid], the pIC50 was greater than 6.52.

On to `Cc1noc(-c2ccc(CN[C@H](Cc3ccccc3)C(=O)O)cc2)c1NC(=O)O[C@H](C)c1ccccc1Cl` [Example 37, (R)-2-(4-{4-[(R)-1-(2-Chloro-phenyl)-ethoxycarbonylamino]-3-methyl-isoxazol-5-yl}-benzylamino)-3-phenyl-propionic Acid], for which the pIC50 was greater than 6.52. As for `Cc1noc(-c2ccc(CNC(Cc3ccccc3F)C(=O)O)cc2)c1NC(=O)OC(C)c1ccccc1Cl` [Example 38, (R)-2-(4-{4-[(R)_1-(2-Chloro-phenyl)-ethoxycarbonylamino]-3-methyl-isoxazol-5-yl}-benzylamino)-3-(2-fluoro-phenyl)-propionic Acid], the pIC50 is greater than 6.52. To `Cc1noc(-c2ccc(CN[C@H](Cc3ccc(C(F)(F)F)cc3)C(=O)O)cc2)c1NC(=O)O[C@H](C)c1ccccc1Cl` [Example 39, (R)-2-(4-{4-[(R)-1-(2-Chloro-phenyl)-ethoxycarbonylamino]-3-methyl-isoxazol-5-yl}-benzylamino)-3-(4-trifluoromethyl-phenyl)-propionic Acid] belongs greater than 6.52.

In the case of `Cc1noc(-c2ccc(CN[C@H](Cc3ccccc3Cl)C(=O)O)cc2)c1NC(=O)O[C@H](C)c1ccccc1Cl` [Example 40, (R)-3-(2-Chloro-phenyl)-2-(4-{4-[(R)-1-(2-chloro-phenyl)-ethoxycarbonylamino]-3-methyl-isoxazol-5-yl}-benzylamino)-propionic Acid], the pIC50 is greater than 6.52.

On to `Cc1noc(-c2ccc(CN[C@H](CC3CC3)C(=O)O)cc2)c1NC(=O)O[C@H](C)c1ccccc1Cl` [Example 41, (R)-2-(4-{4-[(R)-1-(2-Chloro-phenyl)-ethoxycarbonylamino]-3-methyl-isoxazol-5-yl}-benzylamino)-3-cyclopropyl-propionic Acid], for which the pIC50 was greater than 6.52.

With `Cc1noc(-c2ccc(COC(Cc3ccccc3)C(=O)O)cc2)c1NC(=O)O[C@H](C)c1ccccc1` (stereo partly drawn) [Example 42, 2-{4-[3-Methyl-4-((R)-1-phenyl-ethoxycarbonylamino)-isoxazol-5-yl]-benzyloxy}-3-phenyl-propionic Acid], the pIC50 is greater than 6.52. In the case of `Cc1noc(-c2ccc(COC(Cc3ccccc3)C(=O)O)cc2)c1NC(=O)O[C@H](C)c1ccccc1` (stereo partly drawn) [Example 43, 2-{4-[3-Methyl-4-((R)-1-phenyl-ethoxycarbonylamino)-isoxazol-5-yl]-benzyloxy}-3-phenyl-propionic Acid], the pIC50 is 6.00 to 6.52.

Regarding `CC(OC(=O)Nc1c(C#N)cnn1-c1ccc(-c2ccc(CC(=O)O)cc2)cc1)c1ccccc1Cl` (stereo not drawn) [Example 46, 2-[4-[4-[5-[1-(2-chlorophenyl)ethoxycarbonylamino]-4-cyano-pyrazol-1-yl]phenyl]phenyl]acetic Acid], the pIC50 was 4.30 to 6.00.

On to `Cc1c(NC(=O)O[C@H](C)c2ccccc2)c(-c2ccc(-c3ccc(C4(C(=O)O)CC4)cc3)cc2)nn1C` [Example 47, (R)-1-[4-[4-[1,5-dimethyl-4-(1-phenylethoxycarbonylamino)pyrazol-3-yl]phenyl]phenyl]cyclopropane Carboxylic Acid], for which the pIC50 was 6.00 to 6.52.

For the compound `Cc1nn(C)c(-c2ccc(-c3ccc(C4(C(=O)O)CC4)cc3)cc2)c1NC(=O)O[C@H](C)c1ccccc1` [Example 48, (R)-1-[4-[4-[2,5-dimethyl-4-(1-phenylethoxycarbonylamino)pyrazol-3-yl]phenyl]phenyl]cyclopropane Carboxylic Acid], the pIC50 was 4.30 to 6.00.

In the case of `C[C@@H](OC(=O)Nc1c(F)cnn1-c1ccc(-c2ccc(C3(C(=O)O)CC3)c(F)c2)cc1)c1ccccc1Cl` [Example 49, (R)-1-(4′-{5-[1-(2-Chloro-phenyl)-ethoxycarbonylamino]-4-fluoro-pyrazol-1-yl}-3-fluoro-biphenyl-4-yl)-cyclopropanecarboxylic Acid], the pIC50 is greater than 6.52. Turning to `C[C@@H](OC(=O)Nc1c(F)cnn1-c1ccc(-c2ccc(C3(C(=O)O)CC3)cc2F)cc1)c1ccccc1Cl` [Example 50, (R)-1-(4′-{5-[1-(2-Chloro-phenyl)-ethoxycarbonylamino]-4-fluoro-pyrazol-1-yl}-2-fluoro-biphenyl-4-yl)-cyclopropanecarboxylic Acid], the pIC50 is greater than 6.52.

Take `C[C@@H](OC(=O)Nc1c(F)cnn1-c1ccc(-c2ccc(C3(C(=O)O)CC3)cc2Cl)cc1)c1ccccc1Cl` [Example 51, (R)-1-(2-Chloro-4′-{5-[1-(2-chloro-phenyl)-ethoxycarbonylamino]-4-fluoro-pyrazol-1-yl}-biphenyl-4-yl)-cyclopropanecarboxylic Acid]: the pIC50 is greater than 6.52. `Cc1cc(C2(C(=O)O)CC2)ccc1-c1ccc(-n2ncc(F)c2NC(=O)O[C@H](C)c2ccccc2Cl)cc1` [Example 52, (R)-1-(4′-{5-[1-(2-Chloro-phenyl)-ethoxycarbonylamino]-4-fluoro-pyrazol-1-yl}-2-methyl-biphenyl-4-yl)-cyclopropanecarboxylic Acid]: the pIC50 was greater than 6.52. In the case of `C[C@@H](OC(=O)Nc1c(F)cnn1-c1ccc(-c2ccc(C3(C(=O)O)CC3)cc2)cc1)c1ccccc1Cl` [Example 53, (R)-1-(4′-{5-[1-(2-Chloro-phenyl)-ethoxycarbonylamino]-4-fluoro-pyrazol-1-yl}-biphenyl-4-yl)-cyclopropanecarboxylic Acid], the pIC50 was greater than 6.52. In the case of `C[C@@H](OC(=O)Nc1c(C(F)(F)F)cnn1-c1ccc(-c2ccc(C3(C(=O)O)CC3)cc2)cc1)c1ccccc1` [Example 54, (R)-1-{4′-[5-(1-Phenyl-ethoxycarbonylamino)-4-trifluoromethyl-pyrazol-1-yl]-biphenyl-4-yl}-cyclopropanecarboxylic Acid], the pIC50 was 6.00 to 6.52. Regarding `C[C@@H](OC(=O)Nc1c(C(F)(F)F)cnn1-c1ccc(-c2ccc(C3(C(=O)O)CC3)cc2F)cc1)c1ccccc1` [Example 55, (R)-1-{2-Fluoro-4′-[5-(1-phenyl-ethoxycarbonylamino)-4-trifluoromethyl-pyrazol-1-yl]-biphenyl-4-yl}-cyclopropanecarboxylic Acid], the pIC50 was 6.00 to 6.52. In the case of `C[C@@H](OC(=O)Nc1ccnn1-c1ccc(-c2ccc(C3(C(=O)O)CC3)cc2)nc1)c1ccccc1` [Example 56, (R)-1-(4-{5-[5-(1-Phenyl-ethoxycarbonylamino)-pyrazol-1-yl]-pyridin-2-yl}-phenyl)-cyclopropanecarboxylic Acid] it was greater than 6.52. On to “(R)-2-(4-{4-[(R)-1-(2-Chloro-phenyl)-ethoxycarbonylamino]-3-methyl-isoxazol-5-yl}-benzoylamino)-3-phenyl-propionic Acid [Example 20]”, for which the pIC50 was greater than 6.52. Turning to “(R)-3-(4-bromophenyl)-2-[[4-[1,5-dimethyl-4-((R)-1-phenylethoxycarbonyl-amino)pyrazol-3-yl]benzoyl]amino]propanoic acid [Example 12]”, the pIC50 is less than 4.30.
